Results from US12466885B2, “Bispecific chimeric antigen receptors and encoding polynucleotides, vectors and cells thereof” (Seattle Children's Hospital, priority 2012, dated 2025).

What was measured:
[1] = system: non-transduced CTLL2 cells; test: MTX effect on non-transduced CTLL2 cells; type: cell-based, murine; conditions: ≥0.05 μM MTX
From the text: In the absence of MTX, the non-transduced and transduced CTLL2 cells expanded at an equivalent rate (21- and 27-fold respectively).

[2] = system: non-transduced primary human T cells; test: MTX effect on non-transduced primary human T cells; type: cell-based; conditions: starting at concentrations as low as 0.025 μM MTX
Description: (§1) Applicants transduced primary human T cells with the same CD19CAR-huEGFRt-hDHFR^FS lentiviral vector. Purified CD62L^+CD45RO^+ T cells were used as a starting population based on their potential for persistence after adoptive transfer. Ten days after transduction, these T cells were cultured in varying concentrations of MTX and assessed for cell number and viability over time.

[3] = system: transduced primary human T cells (CD62L^+CD45RO^+); test: MTX selection of CD19CAR-huEGFRt-hDHFR^FS transduced primary human T cells; type: cell-based
Description: as §1

[4] = system: transduced CTLL2 cells; test: MTX resistance and selection of CD19CAR-huEGFRt-hDHFR^FS transduced CTLL2 cells; type: cell-based, murine; conditions: for huEGFRt^+ cells: 8 days
Description: CTLL2 T cells were first transduced with this CD19CAR-huEGFRt-hDHFR^FS lentiviral vector and evaluated for their resistance to MTX.
To further characterize the maximum dose of MTX that could be tolerated by selected CTLL2 cells, transduced CTLL2 cells that had been cultured in 0.1 μM MTX for 8 days were re-plated at a wider range of MTX concentrations (up to 0.75 μM).

[5] = system: huEGFRt^+ T cells; test: ADCC of huEGFRt^+ T cells, 4-hour chromium release assay; type: cell-based, human
From the text: A valuable feature of a cell surface selection/tracking marker would be its capacity to serve as a target for in vivo cell ablation.
^51Cr-labeled huEGFRt^+ T cells as the target cells and human GM-CSF activated fresh PBMCs as effectors were co-cultured.

Compound | non-transduced CTLL2 cell expansion and viability [1] | viability and fold-expansion of non-transduced primary human T cells [2] | CD19CAR^+ cells ([3]; 0.025 μM MTX, 10 days) | EGFRt^+ cells ([3]; 0.025 μM MTX, 10 days) [%] | CD19CAR^+ cells ([3]; 0.05 μM MTX, 10 days) | EGFRt^+ cells ([3]; 0.05 μM MTX, 10 days) [%] | viability of transduced T cells ([3]; 0.1 μM MTX) [%] | CD19CAR^+ cells ([3]; Day 6 of culture (Day 0: 18%)) [%] | EGFRt^+ cells ([3]; Day 6 of culture (Day 0: 28%)) [%] | CD19CAR^+ cells ([3]; Day 10 of culture) [%] | EGFRt^+ cells ([3]; Day 10 of culture) [%] | huEGFRt^+ cells ([4]; 0.01 μM MTX) [%] | huEGFRt^+ cells ([4]; 0.025 μM MTX) [%] | huEGFRt^+ cells ([4]; 0.05 μM MTX) [%] | huEGFRt^+ cells ([4]; 0.1 μM MTX) [%] | expansion of transduced cells ([4]; MTX (0-0.1 μM) for 8 days) [fold] | survival of transduced cells ([4]; MTX (0-0.1 μM) for 8 days) [%] | expansion of transduced and pre-MTX selected cells ([4]; MTX concentrations up to 0.25 μM, pre-cultured in 0.1 μM MTX for 8 days) | triggering ADCC of huEGFRt^+ T cells [5]
CN(Cc1cnc2nc(N)nc(N)c2n1)c1ccc(C(=O)N[C@@H](CCC(=O)O)C(=O)O)cc1 [MTX, methotrexate] | strong inhibition | strong inhibition | about 54% | ~79 | about 76% | ~89 | 63 | 48 | 71 | 70 | 88 | 49 | 93 | 98.5 | 99 | 7 | 80 | 90-100 fold | 
RITUXAN® (rituximab): CD20-specific mAb |  |  |  |  |  |  |  |  |  |  |  |  |  |  |  |  |  |  | no effect
